Source: the supplement of paper PMC10307832

Experiments:
Assay in all cases: relative viability (nuclei count vs DMSO), 5 days (fraction); higher = more cells survive
Decitabine = compound: Nc1ncn([C@H]2C[C@H](O)[C@@H](CO)O2)c(=O)n1 [Decitabine]
Method in brief: (§1)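 Acceptance criteria were a control CV below 25% and at least one doubling per plate. Lung cancer cell lines in 1536-well plates got five library-drug doses (not always all listed) √10 apart by pinning and were left 5 days with no medium change. Viability divides treated-well nuclei by vehicle-well nuclei and is the median across plates. Nuclei were counted by MetaXpress from 4× Hoechst images.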

Halofuginone = compound: O=C(C[C@H]1NCCC[C@@H]1O)Cn1cnc2cc(Br)c(Cl)cc2c1=O (racemic) [Halofuginone]
Method in brief: as §1

Cediranib = compound: COc1cc2c(Oc3ccc4[nH]c(C)cc4c3F)ncnc2cc1OCCCN1CCCC1 [Cediranib]
Method in brief: as §1

Cell Line	relative viability (Decitabine; 0.04 µM)	relative viability (Decitabine; 0.1265 µM)	relative viability (Decitabine; 0.4 µM)	relative viability (Decitabine; 1.265 µM)	relative viability (Decitabine; 4 µM)	relative viability (Halofuginone; 0.001 µM)	relative viability (Halofuginone; 0.003162 µM)	relative viability (Halofuginone; 0.01 µM)	relative viability (Halofuginone; 0.03162 µM)	relative viability (Halofuginone; 0.1 µM)	relative viability (Cediranib; 0.04 µM)	relative viability (Cediranib; 0.1265 µM)	relative viability (Cediranib; 0.4 µM)	relative viability (Cediranib; 1.265 µM)	relative viability (Cediranib; 4 µM)	relative viability (Decitabine; 2 µM, anchor plate)
IA-LM	0.509	0.431	0.272	0.192	0.158	0.995	0.94	0.944	0.862	0.354	0.951	0.948	0.877	0.888	1.08	–
LC-2-ad	0.832	0.839	0.679	0.411	0.501	1.11	0.944	0.932	0.978	0.833	1.04	0.871	0.953	0.955	0.785	0.786
LCLC-97TM1	0.425	0.538	0.209	0.134	0.15	0.913	0.938	1.01	0.995	0.679	1.04	–	0.941	0.949	0.984	0.238
LCLC-103H	1.07	1.05	0.917	0.85	0.805	0.992	1.05	0.994	0.96	0.945	1.07	1.03	0.952	1.06	1.06	0.736
LK-2	0.848	1.03	0.721	0.472	0.484	0.91	0.927	1.03	1.02	0.741	1.03	0.86	0.909	0.965	0.821	0.302
LOU-NH91	0.781	0.928	0.886	0.83	0.848	1.03	0.929	0.98	1.06	0.912	0.967	1.15	0.932	0.878	0.958	0.808
LU99A	0.923	0.987	0.981	0.868	0.773	0.971	0.955	0.928	0.814	0.821	0.982	–	0.976	0.845	0.985	0.906
LXF-289	0.778	0.651	0.441	0.345	0.312	0.98	1.02	0.994	1.01	1	1.06	0.778	0.928	1.01	1.03	0.387
NCI-H23	0.671	0.462	0.341	0.26	0.293	0.979	0.937	0.868	0.874	0.671	0.882	0.75	0.847	0.844	1	0.324
NCI-H322M	0.685	0.821	0.742	0.591	0.587	0.991	0.956	0.883	0.649	0.478	0.929	1.18	0.871	0.819	1.02	0.699
NCI-H358	0.65	0.456	0.407	0.285	0.224	0.994	0.892	0.705	0.341	0.142	0.945	1.13	0.893	0.9	0.899	0.229
NCI-H441	0.406	0.381	0.274	0.229	0.238	1.14	1.12	1.06	0.943	0.596	1.04	0.985	0.884	1.03	1.09	0.25
NCI-H460	0.929	0.938	0.766	0.38	0.265	1.04	1.03	0.973	0.975	0.571	1.02	0.98	0.957	0.984	1.05	0.495
NCI-H520	0.847	0.811	0.508	0.472	0.374	1.01	1.07	1.04	0.91	0.635	1.12	0.747	0.917	0.804	0.865	0.517
NCI-H522	0.949	0.938	0.624	0.627	0.611	1.06	0.924	1.04	1.01	0.769	1.04	0.745	0.947	0.961	1.02	0.686
NCI-H596	0.894	0.871	0.607	0.799	0.692	1.01	0.965	1.13	0.882	0.549	1.06	0.959	0.935	0.907	1.1	1.04
NCI-H647	0.732	0.817	0.451	0.249	0.233	1.11	0.971	0.905	0.815	0.599	1.06	0.911	0.831	0.895	1.01	0.403
NCI-H650	0.717	0.596	0.363	0.325	0.332	1.04	1.01	0.956	0.881	0.719	0.892	0.787	0.961	0.87	0.996	0.31
NCI-H661	0.928	0.944	0.764	0.59	0.557	1.01	0.962	0.956	0.907	0.85	0.988	0.98	0.974	0.957	1.1	0.565
NCI-H727	0.733	0.658	0.662	0.579	0.553	1.01	0.88	0.788	0.848	0.65	0.631	0.824	0.906	0.935	0.989	0.903
NCI-H838	0.687	0.59	0.434	0.461	0.314	1	1	0.945	0.765	0.409	1.02	0.965	0.916	0.827	1.06	0.466
NCI-H1299	1.03	1.02	1.02	0.943	0.874	1.06	1.06	0.999	0.979	0.886	1.02	1.02	0.99	1.03	1.09	–
